The source of these data is ChEMBL document CHEMBL1201862, “PubChem BioAssay data set” (2004).

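96-well plates; 48 h exposure; 5 concentrations. Endpoints by linear interpolation between flanking doses. Not reached: highest tested concentration assigned. GI50 marks 50% less growth.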 Active and inactive are the calls of the source. No stated cut-off is given here; in the data, active = GI50 up to about 1.1 µM and inactive = higher.

The GI50 is the concentration at which growth is held to half of that of the control.

What all share (test): DTP human tumour cell line panel, 48 h
Assay [1] has as its system A498.
For assay [2], the system named is A549.
Assay [3] has as its system COLO 205.
In assay [4] the test system is DU-145.
For assay [5], the system named is HOP-92.
Assay [6] deals with MCF7.
In assay [7] the test system is MDA-MB-435.
Assay [8] has as its system MOLT-4.
For assay [9], the system named is Malme-3M.
In assay [10] the test system is SF-295.
Assay [11] has as its system SK-MEL-28.
Assay [12] deals with SK-OV-3.
Assay [13] relates to SN12C.
The subject of assay [14] is SW-620.
Assay [15] has as its system T47D.
Assay [16] concerns TK-10.
The test system of assay [17] is U-251.
For assay [18], the system named is UACC-62.
Assay [19] concerns UO-31.
In assay [20] the test system is MDA-MB-231.

As for `COc1ccc(C2=NN(C(=N)S)C(c3ccccc3)C2)cc1` (stereo unspecified), the GI50 in [1] was 22.8 µM (inactive); in assay [2], 34.8 µM (inactive); in assay [3], 25.8 µM (inactive); in [4], 53.6 µM (inactive); in assay [5], 30.5 µM (inactive); in assay [6] it was 22.5 µM (inactive). For the same compound, the GI50 in assay [7] is 31 µM (inactive); in assay [8], 28 µM (inactive); in assay [9] it was 30.5 µM (inactive); in assay [10] it was 30.3 µM (inactive); in [11], 91 µM (inactive); in assay [12], 46.6 µM (inactive). For the same compound, the GI50 in assay [13] was 39.3 µM (inactive); in [14], 52.2 µM (inactive); in [15], 29.9 µM (inactive); in assay [16], 37.8 µM (inactive); in assay [17], 38.7 µM (inactive); in assay [18], 35.3 µM (inactive). Moreover, the GI50 in assay [19] is 43.4 µM (inactive).
As for `COc1cc(COC(=O)N2CSCC2C(=O)O)c([N+](=O)[O-])cc1OC` (stereo unspecified), the GI50 in assay [2], in [4], in [5], in assay [6], in [7] and in [8] was > 100 µM (inactive) throughout. For the same compound, the GI50 in assay [9], in assay [10], in [12], in assay [13], in [14] and in assay [15] was > 100 µM (inactive) throughout. The GI50 in assay [17], in [18] and in assay [19] was > 100 µM (inactive) in each case.
For `COc1cc(/C=C2\S/C(=N/Nc3nc(-c4ccc(Br)cc4)cs3)NC2=O)cc(OC)c1OC`, the GI50 in assay [2] is 13.6 µM (inactive); in assay [3] it was 26.8 µM (inactive); in assay [4], 19.3 µM (inactive); in [5], 3.63 µM (inactive); in [6], 15.4 µM (inactive); in assay [20], 14.3 µM (inactive). Also, the GI50 in assay [7] is 15.5 µM (inactive); in assay [8] it was 3.78 µM (inactive); in [10], 12.4 µM (inactive); in assay [11], 10.4 µM (inactive); in assay [12] it was 13 µM (inactive); in [13], 28.6 µM (inactive). In addition, the GI50 in assay [14] was 8.55 µM (inactive); in [16], 12 µM (inactive); in assay [17], 2.99 µM (inactive); in assay [18], 11.1 µM (inactive); in assay [19] it was 3.91 µM (inactive).
Take `CCCCCCCCCCCCC/C=C(/COCC[N+](C)(C)C)OC(C)=O.CCCCCCCCCCCCCC/C(=C/OCC[N+](C)(C)C)OC(C)=O`: the GI50 in assay [1] was 2.49 µM (inactive); in assay [2], 1.71 µM (inactive); in assay [3], 1.48 µM (inactive); in assay [4], 4.97 µM (inactive); in [5], 1.16 µM (inactive); in assay [6], 1.9 µM (inactive). The GI50 in assay [20] is 1.78 µM (inactive); in assay [7] it was 2.58 µM (inactive); in [8], 2.29 µM (inactive); in [9] it was 5.68 µM (inactive); in assay [10] it was 0.92 µM (active); in assay [11], 6.5 µM (inactive). Besides, the GI50 in assay [12] is 4.63 µM (inactive); in assay [13], 3.01 µM (inactive); in [14], 2.92 µM (inactive); in assay [16], 1.48 µM (inactive); in assay [17], 1.19 µM (inactive); in assay [18], 1.74 µM (inactive). Further, in [19], the GI50 is 14.3 µM (inactive).
For the compound `O=c1[nH]c(Nc2nc3ccccc3[nH]2)nc2c1CCC2`, the GI50 in assay [1] was > 100 µM (inactive); in [2] it was > 100 µM (inactive); in assay [3] it was > 100 µM (inactive); in assay [4], > 100 µM (inactive); in [5] it was 30.8 µM (inactive); in assay [6], > 100 µM (inactive). Besides, the GI50 in assay [20] is 14.8 µM (inactive); in [7], > 100 µM (inactive); in assay [9] it was > 100 µM (inactive); in assay [10], 76.9 µM (inactive); in [11], 82 µM (inactive); in assay [12], 41.8 µM (inactive). In addition, the GI50 in assay [13] is > 100 µM (inactive); in assay [14], > 100 µM (inactive); in [16], > 100 µM (inactive); in [17] it was 64 µM (inactive); in assay [18] it was > 100 µM (inactive); in assay [19] it was > 100 µM (inactive).
For `C=C1CC[C@]2(C)[C@H](CC[C@@]34C[C@@H](CC[C@H]32)[C@@H](C(=O)O)C4)C1(C)C`, the GI50 in assay [1] was 3.69 µM (inactive); in assay [2], 5.22 µM (inactive); in assay [3], 4.54 µM (inactive); in assay [5], 5.5 µM (inactive); in assay [6] it was > 12.5 µM (inactive); in assay [20], > 12.5 µM (inactive). Also, the GI50 in assay [7] is > 12.5 µM (inactive); in assay [8], 6.17 µM (inactive); in assay [9] it was > 12.5 µM (inactive); in assay [10], 8.24 µM (inactive); in assay [11] it was > 12.5 µM (inactive); in assay [12], > 12.5 µM (inactive). The GI50 in assay [13] was > 12.5 µM (inactive); in assay [14] it was > 12.5 µM (inactive); in [16], > 12.5 µM (inactive); in assay [17], > 12.5 µM (inactive); in assay [18] it was > 12.5 µM (inactive); in assay [19], 7.28 µM (inactive).
Take `OC(CC(c1ccccc1)c1ccc(Cl)cc1)c1ccc(Cl)cc1` (stereo unspecified): the GI50 is 25.8 µM (inactive) in [1]; 37.8 µM (inactive) in assay [2]; 18.5 µM (inactive) in assay [3]; 44.9 µM (inactive) in assay [4]; 26.4 µM (inactive) in assay [5]; 28.4 µM (inactive) in [6]. The GI50 was 27.4 µM (inactive) in assay [7]; 34.2 µM (inactive) in assay [8]; 25.5 µM (inactive) in assay [9]; 34 µM (inactive) in assay [10]; 51.6 µM (inactive) in assay [11]; 36.1 µM (inactive) in [12]. The GI50 was 25.2 µM (inactive) in assay [13]; 40.7 µM (inactive) in [14]; 32.6 µM (inactive) in [15]; 38 µM (inactive) in [16]; 39.7 µM (inactive) in assay [17]; 30.3 µM (inactive) in assay [18]. The GI50 in assay [19] was 33.3 µM (inactive).
Consider `CCOC(=O)C1(C)CCc2sc(N)c(C#N)c21` (stereo unspecified), for which the GI50 in assay [1], in assay [2], in [3], in assay [5], in [6] and in assay [20] was > 100 µM (inactive) throughout. The GI50 in assay [8], in assay [9], in assay [11], in [13], in assay [14] and in assay [15] was > 100 µM (inactive) each time. Moreover, the GI50 in assay [16], in [17], in assay [18] and in assay [19] was > 100 µM (inactive) each time.
